What was measured:
Test in all cases: relative viability (nuclei count vs DMSO), 5 days (fraction); higher = more cells survive
AZ505 + Palbociclib = compound: C1CCC(CC1)N(CCNCCC2=C3C(=C(C=C2)O)NC(=O)CO3)C(=O)CCNCCC4=CC(=C(C=C4)Cl)Cl [AZ505] + CC(=O)c1c(C)c2cnc(Nc3ccc(N4CCNCC4)cn3)nc2n(C2CCCC2)c1=O [Palbociclib] (partner 0.5 µM)
Procedure, shortened: (§1)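 Lung cancer cell lines were seeded in 1536-well plates and dosed by pin tool the next day, with either a single drug or a fixed anchor-drug dose combined with five library-drug doses (not always all listed) spaced in √10 steps. Five days later, one step fixed the cells and stained their nuclei (final 0.05% Triton X-100, 1% formaldehyde, 1 ug/ml Hoechst), and nuclei were counted on 4× images. Relative viability is the nuclei count in treated wells divided by the count in vehicle wells, and each value is the median of duplicate plates.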

AZ505 + Crizotinib = compound: C1CCC(CC1)N(CCNCCC2=C3C(=C(C=C2)O)NC(=O)CO3)C(=O)CCNCCC4=CC(=C(C=C4)Cl)Cl [AZ505] + C[C@@H](Oc1cc(-c2cnn(C3CCNCC3)c2)cnc1N)c1c(Cl)ccc(F)c1Cl [Crizotinib] (partner 1 µM)
Procedure, shortened: as §1

Dactolisib + Bortezomib = compound: Cn1c(=O)n(-c2ccc(C(C)(C)C#N)cc2)c2c3cc(-c4cnc5ccccc5c4)ccc3ncc21 [Dactolisib] + CC(C)C[C@H](NC(=O)[C@H](Cc1ccccc1)NC(=O)c1cnccn1)B(O)O [Bortezomib] (partner 0.002 µM)
Procedure, shortened: as §1

Dactolisib + Vorinostat = compound: Cn1c(=O)n(-c2ccc(C(C)(C)C#N)cc2)c2c3cc(-c4cnc5ccccc5c4)ccc3ncc21 [Dactolisib] + O=C(CCCCCCC(=O)Nc1ccccc1)NO [Vorinostat] (partner 1 µM)
Procedure, shortened: as §1

| Cell Line | relative viability (AZ505 + Palbociclib; first compound 0.08 µM) | relative viability (AZ505 + Palbociclib; first compound 0.253 µM) | relative viability (AZ505 + Palbociclib; first compound 0.8 µM) | relative viability (AZ505 + Palbociclib; first compound 2.53 µM) | relative viability (AZ505 + Palbociclib; first compound 8 µM) | relative viability (AZ505 + Crizotinib; first compound 0.08 µM) | relative viability (AZ505 + Crizotinib; first compound 0.253 µM) | relative viability (AZ505 + Crizotinib; first compound 0.8 µM) | relative viability (AZ505 + Crizotinib; first compound 2.53 µM) | relative viability (AZ505 + Crizotinib; first compound 8 µM) | relative viability (Dactolisib + Bortezomib; first compound 0.002 µM) | relative viability (Dactolisib + Bortezomib; first compound 0.006325 µM) | relative viability (Dactolisib + Bortezomib; first compound 0.02 µM) | relative viability (Dactolisib + Bortezomib; first compound 0.06325 µM) | relative viability (Dactolisib + Bortezomib; first compound 0.2 µM) | relative viability (Dactolisib + Vorinostat; first compound 0.002 µM) | relative viability (Dactolisib + Vorinostat; first compound 0.006325 µM) | relative viability (Dactolisib + Vorinostat; first compound 0.02 µM) | relative viability (Dactolisib + Vorinostat; first compound 0.06325 µM) | relative viability (Dactolisib + Vorinostat; first compound 0.2 µM) |
| --- | --- | --- | --- | --- | --- | --- | --- | --- | --- | --- | --- | --- | --- | --- | --- | --- | --- | --- | --- | --- |
| NCI-H1437 | 0.309 | 0.33 | 0.314 | 0.335 | 0.301 | 0.801 | 0.852 | 0.863 | 0.927 | 0.895 | 0.567 | 0.564 | 0.518 | 0.377 | 0.278 | 0.865 | 0.836 | 0.802 | 0.68 | 0.552 |
| NCI-H1650 | 0.34 | 0.412 | 0.278 | 0.35 | 0.317 | 0.985 | 1.12 | 0.991 | 0.963 | 0.915 | 0.224 | 0.213 | 0.212 | 0.208 | 0.228 | 0.47 | 0.508 | 0.504 | 0.32 | 0.264 |
| NCI-H1651 | 0.512 | 0.517 | 0.502 | 0.498 | 0.523 | 0.804 | 0.82 | 0.874 | 0.823 | 0.885 | 1.05 | 0.952 | 0.884 | 0.886 | 0.67 | 0.579 | 0.645 | 0.547 | 0.391 | 0.377 |
| NCI-H1666 | 0.625 | 0.648 | 0.621 | 0.72 | 0.601 | 0.903 | 1.03 | 0.96 | 0.997 | 0.954 | 0.859 | 0.756 | 0.722 | 0.392 | 0.404 | 1.09 | 0.977 | 0.969 | 0.922 | 0.87 |
| NCI-H1734 | 0.351 | 0.373 | 0.324 | 0.411 | 0.338 | 0.66 | 0.657 | 0.591 | 0.623 | 0.658 | 0.92 | 0.741 | 0.781 | 0.346 | 0.243 | 0.612 | 0.705 | 0.632 | 0.325 | 0.258 |
| NCI-H1755 | 0.42 | 0.46 | 0.434 | 0.441 | 0.442 | 0.767 | 0.928 | 0.907 | 0.87 | 0.777 | 1.01 | 0.848 | 0.933 | 0.711 | 0.58 | 0.758 | 0.77 | 0.71 | 0.619 | 0.477 |
| NCI-H1915 | 0.528 | 0.528 | 0.478 | 0.44 | 0.473 | 0.881 | 0.948 | 0.887 | 0.827 | 0.969 | 1.06 | 0.931 | 0.965 | 0.902 | 0.737 | 0.556 | 0.487 | 0.531 | 0.402 | 0.453 |
| NCI-H1975 | 0.531 | 0.473 | 0.505 | 0.621 | 0.564 | 0.891 | 0.994 | 0.902 | 0.836 | 0.995 | 0.362 | 0.338 | 0.323 | 0.209 | 0.183 | 0.788 | 0.622 | 0.575 | 0.429 | 0.266 |
| NCI-H1993 | 0.599 | 0.705 | 0.621 | 0.583 | 0.713 | 0.928 | 0.85 | 0.766 | 1.03 | 0.798 | 0.94 | 0.689 | 0.754 | 0.522 | 0.455 | 0.849 | 0.54 | 0.537 | 0.481 | 0.284 |
| NCI-H2009 | 0.191 | 0.203 | 0.174 | 0.153 | 0.235 | 0.989 | 1.03 | 0.976 | 1 | 0.976 | 1.07 | 1.01 | 0.972 | 0.44 | 0.288 | 0.746 | 0.719 | 0.704 | 0.568 | 0.202 |
| NCI-H2023 | 0.368 | 0.405 | 0.345 | 0.365 | 0.345 | 0.641 | 0.719 | 0.683 | 0.795 | 0.67 | 0.673 | 0.805 | 0.655 | 0.171 | 0.123 | 0.305 | 0.479 | 0.439 | 0.098 | 0.11 |
| NCI-H2085 | 0.451 | 0.469 | 0.459 | 0.477 | 0.446 | 1.02 | 0.848 | 0.679 | 0.924 | 0.877 | 1.1 | 0.884 | 0.97 | 0.662 | 0.376 | 0.801 | 0.742 | 0.712 | 0.363 | 0.329 |
| NCI-H2087 | 0.225 | 0.27 | 0.312 | 0.22 | 0.197 | 0.683 | 0.743 | 0.998 | 0.752 | 0.838 | 1.04 | 0.784 | 0.791 | 0.548 | 0.382 | 0.731 | 0.458 | 0.501 | 0.176 | 0.339 |
| NCI-H2126 | 0.353 | 0.375 | 0.365 | 0.366 | 0.338 | 0.98 | 1.05 | 0.982 | 1.03 | 1.08 | 1.19 | 1.16 | 1.12 | 0.921 | 0.551 | 0.856 | 0.763 | 0.594 | 0.427 | 0.426 |
| NCI-H2228 | 0.554 | 0.723 | 0.69 | 0.768 | 0.918 | 0.373 | 0.518 | 0.369 | 0.467 | 0.342 | 1.08 | 0.81 | 0.541 | 0.259 | 0.18 | 0.652 | 0.682 | 0.429 | 0.327 | 0.164 |
| NCI-H2347 | 0.37 | 0.451 | 0.38 | 0.448 | 0.485 | 0.518 | 0.55 | 0.433 | 0.443 | 0.559 | 0.809 | 0.916 | 0.894 | 0.691 | 0.402 | 0.557 | 0.55 | 0.585 | 0.364 | 0.378 |

Reference: the supplement of paper PMC10307832
